Test results as given in patent publication US12528786B2, “Plasma kallikrein inhibitors” (Merck Sharp & Dohme LLC, priority 2020, dated 2026).

molecular target: T1, Human plasma kallikrein (Homo sapiens, UniProt P03952); assay: Kallikrein Assay (fluorogenic substrate hydrolysis, AFC release); type: biochemical; settings: purified Human plasma kallikrein 0.5 nM; substrate Acetyl-K—P—R-AFC 100 mM; 50 mM HEPES pH 7.4
T1 construct: yields a heavy chain (371 amino acids) and a light chain (248 amino acids); purchased Enzyme Research Laboratories
Outline: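 Purified human plasma kallikrein (0.5 nM final) with Acetyl-K-P-R-AFC substrate (final ≤0.2 Km) in 50 mM HEPES pH 7.4, 150 mM NaCl, 5 mM CaCl2, 0.1% PEG 8000, after enzyme–inhibitor equilibration; room temperature or 37° C. AFC fluorescence (405 Ex/510 Em nm) under linear conditions; IC50 by four-parameter fit, Ki via Cheng-Prusoff.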

T1 sequence (P03952 391-638 limits assumed): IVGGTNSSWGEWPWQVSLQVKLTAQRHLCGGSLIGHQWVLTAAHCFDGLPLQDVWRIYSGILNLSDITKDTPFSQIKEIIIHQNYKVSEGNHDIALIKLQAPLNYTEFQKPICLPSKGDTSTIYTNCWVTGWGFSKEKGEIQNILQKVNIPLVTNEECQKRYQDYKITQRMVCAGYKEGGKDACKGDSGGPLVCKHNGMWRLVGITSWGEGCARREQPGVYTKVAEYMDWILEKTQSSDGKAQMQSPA
T1 sequence (P03952 20-390 partner limits assumed): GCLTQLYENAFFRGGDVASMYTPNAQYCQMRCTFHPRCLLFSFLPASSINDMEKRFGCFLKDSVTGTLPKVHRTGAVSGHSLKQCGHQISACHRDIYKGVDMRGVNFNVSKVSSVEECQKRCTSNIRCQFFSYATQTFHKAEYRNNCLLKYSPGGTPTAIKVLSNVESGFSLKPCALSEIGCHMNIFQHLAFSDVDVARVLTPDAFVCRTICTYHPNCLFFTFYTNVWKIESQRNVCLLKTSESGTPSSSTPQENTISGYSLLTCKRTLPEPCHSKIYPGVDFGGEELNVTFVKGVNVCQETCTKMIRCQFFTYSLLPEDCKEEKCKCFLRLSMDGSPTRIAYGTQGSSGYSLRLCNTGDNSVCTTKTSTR

| SMILES | IC50 [nM] |
| --- | --- |
| Cc1cc(N2C[C@H]3C[C@H]3C2=O)cnc1C(C)n1cc(C(=O)N[C@H]2C[C@@H](c3cc(Cl)ccc3C#N)C2)cn1 (single isomer, unassigned) [Example 24, N-((cis)-3-(5-chloro-2-cyanophenyl)cyclobutyl)-1-((R or S)-1-(3-methyl-5-((1R,5S)-2-oxo-3-azabicyclo[3.1.0]hexan-3-yl)pyridin-2-yl)ethyl)-1H-pyrazole-4-carboxamide] | 5.1 |
| Cc1ccnc([C@H]2C[C@@H](NC(=O)c3cnn(C(C)c4cnc(N5C[C@H]6C[C@H]6C5=O)cc4C)c3)C2)c1 (single isomer, unassigned) [Example 32, 1-((R or S)-1-(4-methyl-6-((1R,5S)-2-oxo-3-azabicyclo[3.1.0]hexan-3-yl)pyridin-3-yl)ethyl)-N-((cis)-3-(4-methylpyridin-2-yl)cyclobutyl)-1H-pyrazole-4-carboxamide] | 11.1 |
| Cc1cc(N2C[C@H]3C[C@H]3C2=O)nnc1C(C)n1cc(C(=O)N[C@H]2C[C@@H](c3cc(Cl)ccc3C#N)C2)cn1 (single isomer, unassigned) [Example 54, N-((cis)-3-(5-chloro-2-cyanophenyl)cyclobutyl)-1-((S or R)-1-(4-methyl-6-((1R,5S)-2-oxo-3-azabicyclo[3.1.0]hexan-3-yl)pyridazin-3-yl)ethyl)-1H-pyrazole-4-carboxamide] | 239 |
| Cc1cc(N2C[C@H]3C[C@H]3C2=O)ncc1C(C)n1cc(C(=O)N[C@H]2C[C@@H](c3cc(Cl)ccc3C#N)C2)nn1 (single isomer, unassigned) [Example 60, N-((cis)-3-(5-chloro-2-cyanophenyl)cyclobutyl)-1-((S or R)-1-(4-methyl-6-((1R,5S)-2-oxo-3-azabicyclo[3.1.0]hexan-3-yl)pyridin-3-yl)ethyl)-1H-1,2,3-triazole-4-carboxamide] | 14.6 |
| Cc1cc(N2C[C@H]3C[C@H]3C2=O)ncc1C(C)n1cc(C(=O)N[C@H]2C[C@@H](c3cc(F)ccc3C#N)C2)cn1 (single isomer, unassigned) [Example 34, N-((cis)-3-(2-cyano-5-fluorophenyl)cyclobutyl)-1-((R or S)-1-(4-methyl-6-((1R,5S)-2-oxo-3-azabicyclo[3.1.0]hexan-3-yl)pyridin-3-yl)ethyl)-1H-pyrazole-4-carboxamide] | 5.1 |
| CC(c1ccc(N2C[C@H]3C[C@H]3C2=O)nc1)n1cc(C(=O)N[C@H]2C[C@@H](c3cc(Cl)ccc3C#N)C2)nn1 (single isomer, unassigned) [Example 58, N-((cis)-3-(5-chloro-2-cyanophenyl)cyclobutyl)-1-((S or R)-1-(6-((1R,5S)-2-oxo-3-azabicyclo[3.1.0]hexan-3-yl)pyridin-3-yl)ethyl)-1H-1,2,3-triazole-4-carboxamide] | 5 |
| N#Cc1ccc(Cl)cc1[C@H]1C[C@@H](NC(=O)c2cn(Cc3cnc(N4C[C@H]5C[C@H]5C4=O)nc3)nn2)C1 [Example 79, N-((cis)-3-(5-chloro-2-cyanophenyl)cyclobutyl)-1-((2-((1R,5S)-2-oxo-3-azabicyclo[3.1.0]hexan-3-yl)pyrimidin-5-yl)methyl)-1H-1,2,3-triazole-4-carboxamide] | 16.1 |
| COc1cc(C(C)n2cc(C(=O)N[C@H]3C[C@@H](c4cc(Cl)ccc4C#N)C3)cn2)cnc1N1C[C@H]2C[C@H]2C1=O (single isomer, unassigned) [Example 14, N-((cis)-3-(5-chloro-2-cyanophenyl)cyclobutyl)-1-((S or R)-1-(5-methoxy-6-((1R,5S)-2-0x0-3-azabicyclo[3.1.0]hexan-3-yl)pyridin-3-yl)ethyl)-1H-pyrazole-4-carboxamide] | 2.8 |
| Cc1c(C(C)n2cc(C(=O)N[C@H]3C[C@@H](c4cc(Cl)ccc4C#N)C3)cn2)cnc(N2C[C@H]3C[C@H]3C2=O)c1F (single isomer, unassigned) [Example 29, N-((cis)-3-(5-chloro-2-cyanophenyl)cyclobutyl)-1-((S or R)-1-(5-fluoro-4-methyl-6-((1R,5S)-2-oxo-3-azabicyclo[3.1.0]hexan-3-yl)pyridin-3-yl)ethyl)-1H-pyrazole-4-carboxamide] | 1.6 |
| Cc1cc([C@](C)(O)c2cc(C(=O)N[C@H]3C[C@@H](c4cc(Cl)ccc4C#N)C3)no2)cnc1N1C[C@H]2C[C@H]2C1=O (single isomer, unassigned) [Example 157] | 24 |
| Cc1nc(N2C[C@H]3C[C@H]3C2=O)ncc1C(C)n1cc(C(=O)NC2CC(C)(c3cc(Cl)ccc3C#N)C2)nn1 (single isomer, unassigned) [Example 83, N-((cis)-3-(5-chloro-2-cyanophenyl)-3-methylcyclobutyl)-1-((S or R)-1-(4-methyl-2-((1R,5S)-2-oxo-3-azabicyclo[3.1.0]hexan-3-yl)pyrimidin-5-yl)ethyl)-1H-1,2,3-triazole-4-carboxamide] | 39.5 |
| Cc1cc(N2C[C@H]3C[C@H]3C2=O)ncc1C(C)n1cc(C(=O)N[C@H]2C[C@@H](c3cc(Cl)ccn3)C2)nn1 (single isomer, unassigned) [Example 74, N-((cis)-3-(4-chloropyridin-2-yl)cyclobutyl)-1-((S or R)-1-(4-methyl-6-((1R,5S)-2-oxo-3-azabicyclo[3.1.0]hexan-3-yl)pyridin-3-yl)ethyl)-1H-1,2,3-triazole-4-carboxamide] | 3.9 |
| Cc1nn(C(C)c2cnc(N3C[C@H]4C[C@H]4C3=O)nc2)cc1C(=O)N[C@H]1C[C@@H](c2cc(Cl)ccc2C#N)C1 (single isomer, unassigned) [Example 15, N-((cis)-3-(5-chloro-2-cyanophenyl)cyclobutyl)-3-methyl-1-((R or S)-1-(2-((1R,5S)-2-oxo-3-azabicyclo[3.1.0]hexan-3-yl)pyrimidin-5-yl)ethyl)-1H-pyrazole-4-carboxamide] | 2.6 |
| Cc1cc(N2C[C@H]3C[C@H]3C2=O)nnc1C(C)n1cc(C(=O)N[C@H]2C[C@@H](c3cc(Cl)ccc3C#N)C2)cn1 (single isomer, unassigned) [Example 53, N-((cis)-3-(5-chloro-2-cyanophenyl)cyclobutyl)-1-((R or S)-1-(4-methyl-6-((1R,5S)-2-oxo-3-azabicyclo[3.1.0]hexan-3-yl)pyridazin-3-yl)ethyl)-1H-pyrazole-4-carboxamide] | 4.7 |

Compounds with a lower IC50, results first:

| IC50 [nM] | SMILES |
| --- | --- |
| 1 | Cc1cc(N2C[C@H]3C[C@H]3C2=O)ncc1[C@H](C)n1cc(C(=O)N[C@H]2C[C@@](C)(c3cc(Cl)ccc3C(N)=O)C2)nn1 [Example 144, N-((cis)-3-(2-carbamoyl-5-chlorophenyl)-3-methylcyclobutyl)-1-((S)-1-(4-methyl-6-((1R,5S)-2-oxo-3-azabicyclo[3.1.0]hexan-3-yl)pyridin-3-yl)ethyl)-1H-1,2,3-triazole-4-carboxamide] |
| 1.5 | Cc1cc([C@H](C)n2cc(C(=O)N[C@H]3C[C@@H](c4cc(Cl)ccc4C#N)C3)nn2)cnc1N1C[C@H]2C[C@H]2C1=O (single isomer, unassigned) [Example 56] |
| 0.6 | Cc1ccc(C#N)c([C@H]2C[C@@H](NC(=O)c3cn(C(C)c4cnc(N5C[C@H]6C[C@H]6C5=O)c(F)c4C)nn3)C2)c1 (single isomer, unassigned) [Example 120, N-((cis)-3-(2-cyano-5-methylphenyl)cyclobutyl)-1-((S or R)-1-(5-fluoro-4-methyl-6-((1R,5S)-2-oxo-3-azabicyclo[3.1.0]hexan-3-yl)pyridin-3-yl)ethyl)-1H-1,2,3-triazole-4-carboxamide] |
| 1.5 | CC(c1cnc(N2C[C@H]3C[C@H]3C2=O)c(F)c1)n1cc(C(=O)N[C@H]2C[C@@H](c3cc(Cl)ccc3C#N)C2)cn1 (single isomer, unassigned) [Example 22, N-((cis)-3-(5-chloro-2-cyanophenyl)cyclobutyl)-1-((S or R)-1-(5-fluoro-6-((1R,5S)-2-oxo-3-azabicyclo[3.1.0]hexan-3-yl)pyridin-3-yl)ethyl)-1H-pyrazole-4-carboxamide] |
| 0.6 | Cc1ccc(C#N)c([C@H]2C[C@@H](NC(=O)c3cn(C(C)c4cnc(N5C[C@H]6C[C@H]6C5=O)c(C)c4C)nn3)C2)n1 (single isomer, unassigned) [Example 99, N-((cis)-3-(3-cyano-6-methylpyridin-2-yl)cyclobutyl)-1-((S or R)-1-(4,5-dimethyl-6-((1R,5S)-2-oxo-3-azabicyclo[3.1.0]hexan-3-yl)pyridin-3-yl)ethyl)-1H-1,2,3-triazole-4-carboxamide] |
| 0.3 | COc1c(N2C[C@H]3C[C@H]3C2=O)ncc(C(C)n2cc(C(=O)N[C@H]3C[C@@H](c4cc(Cl)ccc4C#N)C3)nn2)c1C (single isomer, unassigned) [Example 111, N-((cis)-3-(5-chloro-2-cyanophenyl)cyclobutyl)-1-((R or S)-1-(5-methoxy-4-methyl-6-((1R,5S)-2-oxo-3-azabicyclo[3.1.0]hexan-3-yl)pyridin-3-yl)ethyl)-1H-1,2,3-triazole-4-carboxamide] |
| 0.2 | Cc1c([C@H](C)n2cc(C(=O)N[C@H]3C[C@@](C)(c4cc(Cl)ccc4C#N)C3)nn2)cnc(N2C[C@H]3C[C@H]3C2=O)c1C [Example 141, N-((cis)-3-(5-chloro-2-cyanophenyl)-3-methylcyclobutyl)-1-((S)-1-(4,5-dimethyl-6-((1R,5S)-2-oxo-3-azabicyclo[3.1.0]hexan-3-yl)pyridin-3-yl)ethyl)-1H-1,2,3-triazole-4-carboxamide] |
| 0.7 | Cc1c(C(C)n2cc(C(=O)N[C@H]3C[C@@H](c4cc(Cl)ccc4C#N)C3)cn2)cnc(N2C[C@H]3C[C@H]3C2=O)c1C (single isomer, unassigned) [Example 40, N-((cis)-3-(5-chloro-2-cyanophenyl)cyclobutyl)-1-((S or R)-1-(4,5-dimethyl-6-((1R,5S)-2-oxo-3-azabicyclo[3.1.0]hexan-3-yl)pyridin-3-yl)ethyl)-1H-pyrazole-4-carboxamide] |
